The results in this text go back to ChEMBL document CHEMBL3044931, “Synthesis and Antimuscarinic Activity of Derivatives of 2-Substituted-1,3-Dioxolanes” (Med Chem Res, 2005).

Experiment [1] can be described thus: Antagonist activity at Oryctolagus cuniculus (rabbit) vas deferens M1 receptor after 1 hr. Conditions: read-out: pA2 (converted).
Experiment [2] is filed under the species Oryctolagus cuniculus. The experiment is described as follows: Binding affinity to Oryctolagus cuniculus (rabbit) vas deferens M1 receptor after 1 hr.
Experiment [3] has as its target Muscarinic acetylcholine receptor M3 (Cavia porcellus) (UniProt Q8VH26). The experiment is described as follows: Binding affinity to Cavia porcellus (guinea pig) ileum M3 receptor after 30 min. The class given is tissue-based.
In experiment [4] the target is T1, Muscarinic receptor 2 (Cavia porcellus) (UniProt Q8VH27).
T1 sequence (whole entry): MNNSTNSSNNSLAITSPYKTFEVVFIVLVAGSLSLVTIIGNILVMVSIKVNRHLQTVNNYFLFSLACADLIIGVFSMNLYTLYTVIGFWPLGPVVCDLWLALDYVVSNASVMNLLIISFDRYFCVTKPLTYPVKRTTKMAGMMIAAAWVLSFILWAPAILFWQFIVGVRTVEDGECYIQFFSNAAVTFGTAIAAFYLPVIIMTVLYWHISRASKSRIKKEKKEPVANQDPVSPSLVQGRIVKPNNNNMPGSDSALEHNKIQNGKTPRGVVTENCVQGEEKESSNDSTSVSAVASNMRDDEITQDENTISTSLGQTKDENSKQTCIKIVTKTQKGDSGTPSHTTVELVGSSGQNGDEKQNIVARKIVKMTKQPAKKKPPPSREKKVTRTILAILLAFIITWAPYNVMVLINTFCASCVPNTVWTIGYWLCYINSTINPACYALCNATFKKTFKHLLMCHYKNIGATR
The experiment in a line: Binding affinity to Cavia porcellus (guinea pig) left atria M2 receptor after 2 hr.

Experiment [5] is described as follows: Selectivity ratio of pKb for rabbit vas deferens M1 receptor to pKb for guinea pig left atria M2 receptor.
A short description of experiment [6]: Selectivity ratio of pKb for rabbit vas deferens M1 receptor to pKb for guinea pig ileum M3 receptor. The class given is tissue-based.
Experiment [7] is filed under the species Cavia porcellus. The experiment in a line: Selectivity ratio of pKb for Cavia porcellus (guinea pig) ileum M3 receptor to pKb for Cavia porcellus (guinea pig) left atria M2 receptor. It counts as tissue-based. The conditions noted are these: Atrium/Ileum.

Sequence of Muscarinic acetylcholine receptor M3 (Cavia porcellus) (Q8VH26 1-587): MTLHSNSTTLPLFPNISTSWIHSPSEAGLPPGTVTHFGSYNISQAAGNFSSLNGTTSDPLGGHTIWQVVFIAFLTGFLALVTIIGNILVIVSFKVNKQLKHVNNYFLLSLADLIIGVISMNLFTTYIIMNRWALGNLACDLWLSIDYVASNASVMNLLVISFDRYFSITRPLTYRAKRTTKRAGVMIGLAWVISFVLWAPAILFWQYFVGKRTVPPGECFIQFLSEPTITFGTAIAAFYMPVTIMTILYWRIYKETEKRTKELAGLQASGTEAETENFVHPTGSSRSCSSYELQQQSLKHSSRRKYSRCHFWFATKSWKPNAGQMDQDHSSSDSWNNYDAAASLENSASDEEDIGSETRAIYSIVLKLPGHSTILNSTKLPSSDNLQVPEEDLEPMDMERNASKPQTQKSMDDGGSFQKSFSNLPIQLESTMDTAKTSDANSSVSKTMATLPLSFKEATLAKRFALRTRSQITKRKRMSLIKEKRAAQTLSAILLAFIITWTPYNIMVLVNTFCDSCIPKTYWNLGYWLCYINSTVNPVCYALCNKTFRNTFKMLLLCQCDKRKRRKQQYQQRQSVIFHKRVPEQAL

For `CN(C)[C@H]1CO[C@@H](C(c2ccccc2)c2ccccc2)OC1`, the Kb in experiment [1] is 6.17 nM.
Still for that read-out and setting: to `CN(C)[C@H]1CO[C@H](C(c2ccccc2)c2ccccc2)OC1` belongs 389 nM.
Broadly, the pKb is the negative decadic logarithm of the Kb, by convention in mol/L. Take `CN(C)CC1COC(c2ccccc2)(c2ccccc2)O1` (configuration not stated): the pKb was determined as 7.15 in experiment [2], 6.72 in experiment [3] and 7.11 in experiment [4]. Moreover, the Ratio pKb in experiment [5] amounted to 1; in experiment [6], 3; in experiment [7] it was 0.4.
With `CN(C)C[C@@H]1CO[C@@H](C(c2ccccc2)c2ccccc2)O1`, the values for the pKb in experiment [2], in experiment [3] and in experiment [4] were 6.9, 6.67 and 6.56, respectively. Besides, the Ratio pKb in experiment [5] is 2; in experiment [6] it was 2; in experiment [7], 1.
Turning to `CN(C)C[C@@H]1CO[C@H](C(c2ccccc2)c2ccccc2)O1` (relative stereo), the pKb in experiment [2] was determined as 7.31; in experiment [3], 6.07; in experiment [4] it was 6.62. In addition, the Ratio pKb in experiment [5] was 5; in experiment [6] it was 17; in experiment [7], 0.3.
Regarding `C[C@@H]1OC(c2ccccc2)(c2ccccc2)O[C@@H]1CN(C)C` (relative stereo), the pKb in experiment [2] is 6.35; in experiment [3] it was 6.44; in experiment [4] it was 6.48. The Ratio pKb in experiment [5] turned out to be 0.7; in experiment [6] it was 0.8; in experiment [7] it was 0.9.
Regarding `C[C@H]1OC(c2ccccc2)(c2ccccc2)O[C@@H]1CN(C)C` (relative stereo), the negative-log Kb (pKb) in experiment [2] was found to be 6.87; in experiment [3] it was 6.71; in experiment [4], 6.71. In addition, the Ratio pKb in experiment [5], in experiment [6] and in experiment [7] was 1 each time.
